This is an account of results in PubChem BioAssay AID504528 (Sanford-Burnham Center for Chemical Genomics, 2011).

The IC50 is the concentration that gives 50% inhibition.

Calls of active or inactive are those of the source.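 How the source made its calls: active means mean IC50 of 20 µM or lower; inactive means the rest.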

This test has as its system HEK-293T NF-kB-Luc cytotoxicity, resazurin fluorescence, 14 h. The experiment in a line: HEK-293T cell viability loss – cytotoxicity control for B-cell antigen receptor NF-kB inhibitors, SAR follow-up (AID 504528).
For `CCOc1ccc(-c2nc(CSCC(=O)N3CCOCC3)c(C)o2)cc1`, the IC50 was > 79 µM (inactive).

`CCOc1ccc(-c2nc(CSCC(=O)NC3CCC3)c(C)o2)cc1`: the IC50 was > 79 µM (inactive).

Take `CCc1ccc(-c2noc(CCC(=O)NC(C)(C)C)n2)cc1`: the IC50 was > 79 µM (inactive).

With `CCOc1ccc(-c2nc(CSCC(=O)NCC3CC3)c(C)o2)cc1`, the IC50 was > 79 µM (inactive).

As for `C#CCNC(=O)CSCc1nc(-c2ccc(OCC)cc2)oc1C`, the IC50 was > 79 µM (inactive). Take `CCNC(=O)CCc1nc(-c2ccccc2C)no1`: the IC50 is > 79 µM (inactive). As for `CCCCc1ccc(-c2noc(CCC(=O)NC3CC3)n2)cc1`, the figure is > 79 µM (inactive). As for `CCOc1ccc(-c2nc(CSCC(=O)NC(C)(C)C)c(C)o2)cc1`, the figure is > 79 µM (inactive); as for `COc1cccc(-c2cc(=O)c3cc(NC(=O)c4ccc(N(C)C)cc4)ccc3[nH]2)c1`, 2.25 µM; as for `CCOc1ccc(-c2nc(CSCC(=O)O)c(C)o2)cc1`, > 79 µM (inactive).

On to `CCCCOc1ccc(-c2nc(CSCC(=O)O)c(C)o2)cc1`, for which the IC50 was > 79 µM (inactive). As to `O=C(CCc1nc(-c2ccccc2)no1)NC1CC1`, the IC50 was > 79 µM (inactive). As for `Cc1oc(-c2ccc(OC(F)(F)F)cc2)nc1CSCC(=O)NC1CC1`, the figure is > 79 µM (inactive); as for `CCc1ccc(-c2noc(CCC(=O)NC)n2)cc1`, > 79 µM (inactive). As for `CCc1ccc(-c2noc(CCC(=O)NC(C)CC)n2)cc1` (configuration not stated), the figure is > 79 µM (inactive); as for `CCOc1ccc(-c2nc(CSCC(N)=O)c(C)o2)cc1`, > 79 µM (inactive); as for `CCOc1cccc(-c2nc(CSCC(=O)NC3CC3)c(C)o2)c1`, > 79 µM (inactive). As for `CCOc1ccccc1-c1nc(CSCC(=O)NC2CC2)c(C)o1`, the figure is > 79 µM (inactive); as for `Cc1oc(-c2ccc(C(F)(F)F)cc2)nc1CSCC(=O)O`, > 79 µM (inactive).

On to `CCOc1ccc(-c2nc(CSCC(=O)NC3CC3)c(-c3ccccc3)o2)cc1`, for which the IC50 was > 79 µM (inactive).

On to `CCC(C)NC(=O)CCc1nc(-c2ccc(C(C)(C)C)cc2)no1` (configuration not stated), for which the IC50 was > 79 µM (inactive).

For `CCNC(=O)CCc1nc(-c2c(Cl)cccc2Cl)no1`, the IC50 was > 79 µM (inactive). As for `CC(C)Nc1ccc(C(CC(=O)O)NC(=O)c2ccccc2)cc1[N+](=O)[O-]` (configuration not stated), the figure is > 79 µM (inactive); as for `CNC(=O)CCc1nc(-c2ccc(C(C)C)cc2)no1`, > 79 µM (inactive); as for `CCNC(=O)CCc1nc(-c2ccccc2Cl)no1`, > 79 µM (inactive). As for `CCc1ccc(-c2noc(CCC(=O)NC3CC3)n2)cc1`, the figure is > 79 µM (inactive); as for `CCNC(=O)CCc1nc(-c2cccc(C)c2)no1`, > 79 µM (inactive).

Regarding `CC(C)(C)NC(=O)CCc1nc(-c2ccccc2)no1`, the IC50 was > 79 µM (inactive). As for `CCCCc1ccc(-c2noc(CCC(=O)NCC)n2)cc1`, the figure is > 79 µM (inactive); as for `CCCCOc1ccc(-c2nc(CSCC(=O)NCc3ccco3)c(C)o2)cc1`, > 79 µM (inactive). As for `Cc1oc(-c2ccc(OC(F)(F)F)cc2)nc1CSCC(=O)O`, the figure is > 79 µM (inactive); as for `CC(C)(C)c1ccc(-c2noc(CCC(=O)NC3CCC3)n2)cc1`, > 79 µM (inactive). As to `CC(C)c1ccc(-c2noc(CCC(=O)NC3CC3)n2)cc1`, the IC50 is > 79 µM (inactive). As for `Cc1oc(-c2ccc(C(F)(F)F)cc2)nc1CSCC(=O)NC1CC1`, the figure is > 79 µM (inactive); as for `CCC(C)NC(=O)CCc1nc(-c2ccc(C(C)C)cc2)no1` (configuration not stated), > 79 µM (inactive); as for `CCNC(=O)CCc1nc(-c2cccc(OC)c2)no1`, > 79 µM (inactive). As for `COc1ccc(C(=O)Nc2ccc3[nH]c(-c4cccc(OC)c4)cc(=O)c3c2)cc1`, the figure is > 79 µM (inactive); as for `CCNC(=O)CCc1nc(-c2cccc(F)c2)no1`, > 79 µM (inactive); as for `CCOc1ccc(-c2nc(CSCC(=O)N(C)C)c(C)o2)cc1`, > 79 µM (inactive).

On to `Cc1ccc(-c2nc(CSCC(=O)NC3CC3)c(C)o2)cc1`, for which the IC50 is > 79 µM (inactive). For the compound `CCNC(=O)CCc1nc(-c2ccc(C(C)C)cc2)no1`, the IC50 is > 79 µM (inactive). With `CCOc1ccccc1-c1nc(CSCC(=O)O)c(C)o1`, the IC50 was > 79 µM (inactive).

On to `CCCCc1ccc(-c2noc(CCC(=O)NC)n2)cc1`, for which the IC50 is > 79 µM (inactive).

Regarding `Cc1ccc(-c2nc(CSCC(=O)NCc3ccco3)c(C)o2)cc1`, the IC50 is > 79 µM (inactive).

For `CCCOc1ccc(-c2nc(CSCC(=O)O)c(C)o2)cc1`, the IC50 is > 79 µM (inactive). On to `CCc1ccc(-c2nc(CSCC(=O)NC3CC3)c(-c3ccccc3)o2)cc1`, for which the IC50 is > 79 µM (inactive). As for `CCOc1ccc(-c2nc(CSCC(=O)NC)c(C)o2)cc1`, the figure is > 79 µM (inactive). As for `CCC(C)NC(=O)CCc1nc(-c2ccccc2)no1` (configuration not stated), the IC50 was > 79 µM (inactive). Consider `CCOC(=O)CC(NC(=O)c1ccc(Br)cc1)c1ccc(F)c([N+](=O)[O-])c1` (configuration not stated), for which the IC50 is > 79 µM (inactive). Regarding `CCCOc1ccc(-c2nc(CSCC(=O)NCc3ccco3)c(C)o2)cc1`, the IC50 was 59.8 µM (inactive). For `CCCOc1ccc(-c2nc(CSCC(=O)NC3CC3)c(C)o2)cc1`, the IC50 was > 79 µM (inactive). As for `CCCCc1ccc(-c2noc(CCC(=O)NC(C)(C)C)n2)cc1`, the figure is > 79 µM (inactive); as for `CCCCc1ccc(-c2noc(CCC(=O)NC(C)CC)n2)cc1` (configuration not stated), > 79 µM (inactive); as for `CCCCOc1ccc(-c2nc(CSCC(=O)NC3CC3)c(C)o2)cc1`, > 79 µM (inactive). As for `COc1cccc(-c2cc(=O)c3cc(NC(=O)c4ccccc4)ccc3[nH]2)c1`, the figure is 60.4 µM (inactive); as for `CCNC(=O)CCc1nc(-c2ccc(CC)cc2)no1`, > 79 µM (inactive); as for `CC(C)c1ccc(-c2noc(CCC(=O)NC(C)(C)C)n2)cc1`, > 79 µM (inactive).
